Data set [1] can be described thus: Human microsome stability assay. The data set is classed as in vitro ADME. To be noted: pH 7.4, human liver microsomes, read-out: T½. As for the experimental part: Rate of metabolism in microsomes was tested as follows:
Human liver microsomes were diluted with buffer C (0.1 M Potassium Phosphate buffer, 1.0 mM EDTA, pH 7.4) to a concentration of […]. Microsomal stability studies were carried out by adding 30 μL of 1.5 μM compound spiking solution to wells (1.5 μL of 500 μM spiking solution (10 μL of 10 mM DMSO stock solution into 190 μL ACN to eventually generate final test concentration of 1 uM) and 18.75 μL of 20 mg/mL liver microsomes into 479.75 μL of Buffer C). All samples were pre-incubated for approximately 15 minutes at 37° C. Following this, the reaction was initiated by adding 15 μL of the NADPH solution (6 mM) with gentle mixing. Aliquots (40 μL) were removed at 0, 5, 15, 30 and 45 minutes and quenched with ACN containing internal standard (135 μL). Protein was removed by centrifugation (4000 rpm, 15 min) and the sample plate analysed for compound concentration by LC-MS/MS. Half-lives were then calculated by standard methods, comparing the concentration of analyte with the amount originally present.
The metabolic stability of the compounds of the invention was assessed in a standard human microsome stability assay (see general methods).

A further data set has as its system CD4+ T cells. In words: IL-1 beta secretion from CD4+ T cells (cytometric bead assay). The data set is classed as cell-based, human. To be noted: 2 days. As for the experimental part:
FIG. 13: IL1 b secretion (as measured by cytometric bead assay) from PBMC, macrophages or CD4 T cells stimulated with indicated compound for 48 h.
Study 12: PBMCs, macrophages and CD4+ T cells where exposed to compounds 1 and 2 for 2 days.

In the next data set the target is T1, human TLR2 (Homo sapiens, UniProt O60603).
T1 construct: host or cells: recombinant HEK-293-TLR cell lines
The data set can be described thus: TLR2 reporter assay (HEK-293-TLR, SEAP). In kind it is cell-based. To be noted: concentrations up to 20 uM. As to the method: Samples and controls were tested in duplicate on recombinant HEK-293-TLR cell lines using a cell reporter assay at Invivogen using their standard assay conditions. These cell lines functionally over-express human TLR2 protein as well as a reporter gene which is a secreted alkaline phosphatase (SEAP). The production of this reporter gene is driven by an NFkB inducible promoter. The TLR reporter cell lines activation results are given as optical density values (OD).
20 μl of each test article were used to stimulate the hTLR2 reporter cell lines in a 200 μl of final reaction volume. Samples were tested in duplicate, with at least two concentrations tested—20 uM and 10 uM.
Compounds were tested using a TLR2 reporter assay (see general methods) that measured for stimulation of the TLR2 receptor. Stimulatory effect was measured as an increase in optical density (OD) due to release of secreted alkaline phosphatase (SEAP) and is shown in table 4: […]

Data set [2] deals with PBMCs from CMV infected donors. In words: IFN-gamma secretion from PBMCs of CMV infected donors with CMV antigen (cytometric bead assay). To be noted: 3 days. In kind it is cell-based, human. From the text:
FIG. 9: Interferon-gamma secretion (as measured by cytometric bead assay) from PBMCs (from a CMV+ donor) grown with CMV peptides in the presence or absence of compound 1 or A for 5 days.
Study 8: PBMCs from CMV infected donors cultured in the presence of CMV antigen where either untreated or exposed to compound 1 or compound 2 for 3 days.

T1 sequence (O60603 21-784): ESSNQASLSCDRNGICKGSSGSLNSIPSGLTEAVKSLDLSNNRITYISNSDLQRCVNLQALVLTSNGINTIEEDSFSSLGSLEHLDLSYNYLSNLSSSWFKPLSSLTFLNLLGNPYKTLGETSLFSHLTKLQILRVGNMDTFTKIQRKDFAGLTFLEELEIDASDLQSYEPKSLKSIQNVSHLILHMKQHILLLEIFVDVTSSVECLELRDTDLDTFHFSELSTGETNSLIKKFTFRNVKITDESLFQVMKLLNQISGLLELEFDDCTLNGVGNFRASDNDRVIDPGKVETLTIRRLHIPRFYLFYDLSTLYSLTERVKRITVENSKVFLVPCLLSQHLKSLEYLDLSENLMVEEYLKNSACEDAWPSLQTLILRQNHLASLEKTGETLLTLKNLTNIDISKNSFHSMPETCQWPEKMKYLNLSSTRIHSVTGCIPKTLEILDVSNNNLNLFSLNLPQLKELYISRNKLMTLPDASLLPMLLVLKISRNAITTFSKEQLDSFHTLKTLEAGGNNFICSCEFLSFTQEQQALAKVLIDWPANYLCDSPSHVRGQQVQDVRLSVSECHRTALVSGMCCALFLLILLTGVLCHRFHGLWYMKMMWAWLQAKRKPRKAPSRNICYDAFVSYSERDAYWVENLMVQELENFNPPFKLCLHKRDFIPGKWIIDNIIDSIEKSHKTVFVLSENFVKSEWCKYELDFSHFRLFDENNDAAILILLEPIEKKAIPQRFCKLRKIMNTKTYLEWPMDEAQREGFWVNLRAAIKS

For `CC[C@H]1OC(=O)[C@H](C)[C@@H](O[C@H]2C[C@@H](N(C)C)[C@H](O)[C@@H](C)O2)[C@H](C)[C@@H](O)[C@](C)(O)C[C@@H](C)CN(C)[C@H](C)[C@@H](O)[C@]1(C)O` [Compound 1], in data set [1], the half-life at 1 uM is 1.8 h. For the same compound, the “IL-1 beta secretion in CD4+ T cells” value with CD4+ T cells is “no IL-1 beta was induced”. In addition, on human TLR2, the “TLR2 stimulation (in words)” value is “stimulated TLR2 at concentrations down to 5 uM”. Also, in data set [2], the IFN-gamma secretion result is listed as “induced secretion of high levels of IFN-gamma”.

For the origin of these results see patent publication US20210040134A1, “COMBINATIONS OF MACROLIDE COMPOUNDS AND IMMUNE CHECKPOINT INHIBITORS” (ISR IMMUNE SYSTEM REGULATION HOLDING AB (PUBL), priority 2018, published 2021).
